US8962844B2, “1,3,4-oxadiazole and 1,3,4-thiadiazole β-lactamase inhibitors” (priority 2012, dated 2015)
Where a name gives a salt, the structure may show the parent alone.

Tested on: bacterial strains that express the class D cephalosporinase OXA-15
Assay: Standard BLI potentiation MIC / synergy MIC (sMIC) assays run in the presence of a β-lactam, OXA-15 expressing strains
Assay type: cell-based, E. coli
Details: BLI in combination with a β-lactam; comparison with Avibactam (comparator compound CCC)
Text: Unless otherwise indicated, the activity of the BLI compounds can be described by the MIC value obtained from a Synergy MIC assay or a BLI potentiation assay (e.g as described herein), both of which are run in the presence of a β-lactam.
A set of β-lactamase expressing isogenic E. coli strains was constructed by cloning a β-lactamase gene into a customized derivative of pBR322 (GenBank Accession Number J01749) and transforming the engineered plasmids into E. coli. The NdeI restriction site within the plasmid backbone of pBR322 was removed to generate pBR322 ΔNdeI. The pBR322 ΔNdeI vector itself, minus the blaTEM-1 gene, was amplified using two primers: (1) pBR-Pbla 5′-cgcatatgactettectttttcaatattattg-3, SEQ ID 1, a primer with an engineered NdeI restriction site at the 3′ end of the blaTEM-1 promoter and (2) pBR-vec-1 5′-[…]-3′, SEQ ID 2, a primer with an engineered BamHI restriction site at the 3′ end of the blaTEM-1 open reading frame. The chloramphenicol resistance gene, cat, was generated by PCR amplification from pKD3 (GenBank Accession Number AY048742) using primers with an engineered NdeI restriction site at the 5′ end (Pbla-cat 5′-[…]-3′, SEQ ID 3) and an engineered BamHI restriction site at the 3′ end (Vec-1-cat 5′-[…]-3′, SEQ ID 4) of the resistance gene. The two PCR products, pBR322 ΔNdeI and cat were ligated together generating pBR-CBST (pBR322 ΔNdeI ΔTEM-1::cat Seq. ID 5) which retains both the pBR322 tetracycline resistance cassette, tetA, and the plasmid origin of replication but the blaTEM-1 gene was replaced by the cat gene.
Using this engineering strategy a number of plasmids producing β-lactamase genes from different classes (see below) were generated using synthetic genes with an engineered NdeI restriction site at the 5′ end and BamHI restriction site at the 3′ end of each gene (GenScript). Both the synthetic β-lactamase genes and cat gene were ligated into the NdeI/BamHI sites of the pBR322 ΔNdeI PCR product and transformed into electrocompetent E. coli ElectroMax DH10B (Invitrogen/Life Technologies). E. coli DH10B harboring the recombinant plasmids were selected on LB agar (supplemented with 25 μg/mL tetracycline) and single isolated colonies were then inoculated into 5 mL LB media (supplemented with 25 μg/mL tetracycline), and incubated at 37° C. with aeration (250 rpm) for 18 hrs. The cultures were frozen back at −80° C. in 20% glycerol. The DNA sequence of the cloned β-lactamase genes was confirmed. The β-lactamase gene expression in the recombinant E. coli strains was driven by the blaTEM-1 promoter in the pBR-CBST plasmid and was characterized by MIC profiling of the E. coli recombinant strains against comparator β-lactam/BLI combinations in broth microdilution assay.
The experimental protocol was performed according to Clinical and Laboratory Standards Institute (CLSI) guidelines with modifications as described below (CLSI guidelines can be derived from the CLSI document M07-A9 published in January 2012: “Methods for Dilution Antimicrobial Susceptibility Tests for Bacteria That Grow Aerobically; Approved Standard-Ninth Edition”).
To prepare for MIC testing, frozen glycerol stocks of clinical isolates (Klebsiella pneumoniae, Eschericia coli, Enterobacter spp, Citrobacter spp, or Pseudomonas aeruginosa) were used to streak for isolated colonies on rich, non-selective, tryptic soy agar containing 5% sheep's blood (TSAB). Frozen glycerol stocks of laboratory engineered, isogenic E. coli strains, which contain cloned β-lactamase expressing plasmids were used to streak for isolated colonies on rich, selective LB agar supplemented with 25 μg/mL tetracycline to maintain the plasmid. All strains were incubated at 37° C. for 18-24 hrs.
On the day of testing, primary cultures were started by scraping off 5-10 colonies from the TSAB plates containing clinical strains or the tetracycline supplemented LB plates containing engineered strains. […]

Row | SMILES | activity against bacterial strains that express the class D cephalosporinase OXA-15, compared with Avibactam
1 | NCCNCCc1nnc([C@@H]2CC[C@@H]3CN2C(=O)N3OS(=O)(=O)O)o1 [Compound 716, (2S,5R)-2-(5-(2-((2-aminoethyl)amino)ethyl)-1,3,4-oxadiazol-2-yl)-7-oxo-1,6-diazabicyclo[3.2.1]octan-6-yl hydrogen sulfate] | more active than Avibactam
2 | O=C1N2C[C@@H](CC[C@H]2c2nnc(C3CCNCC3)s2)N1OS(=O)(=O)O [Compound 719, (2S,5R)-7-oxo-2-(5-(piperidin-4-yl)-1,3,4-thiadiazol-2-yl)-1,6-diazabicyclo[3.2.1]octan-6-yl hydrogen sulfate] | more active than Avibactam
3 | N=C(N)N1CCC(c2nnc([C@@H]3CC[C@@H]4CN3C(=O)N4OS(=O)(=O)O)o2)CC1 [Compound 712, (2S,5R)-2-(5-(1-carbamimidoylpiperidin-4-yl)-1,3,4-oxadiazol-2-yl)-7-oxo-1,6-diazabicyclo[3.2.1]octan-6-yl hydrogen sulfate] | more active than Avibactam
4 | O=C1N2C[C@@H](CC[C@H]2c2nnc(N3CCNCC3)s2)N1OS(=O)(=O)O [Compound 797, (2S,5R)-7-oxo-2-(5-(piperazin-1-yl)-1,3,4-thiadiazol-2-yl)-1,6-diazabicyclo[3.2.1]octan-6-yl hydrogen sulfate] | more active than Avibactam
5 | O=C1N2C[C@@H](CC[C@H]2c2nnc(N3CCNCC3)o2)N1OS(=O)(=O)O [Compound 713, (2S,5R)-7-oxo-2-(5-(piperazin-1-yl)-1,3,4-oxadiazol-2-yl)-1,6-diazabicyclo[3.2.1]octan-6-yl hydrogen sulfate] | more active than Avibactam
6 | NCC(O)Cc1nnc([C@@H]2CC[C@@H]3CN2C(=O)N3OS(=O)(=O)O)o1 (stereo partly drawn) [Compound 733, (2S,5R)-2-(5-(3-amino-2-hydroxypropyl)-1,3,4-oxadiazol-2-yl)-7-oxo-1,6-diazabicyclo[3.2.1]octan-6-yl hydrogen sulfate] | more active than Avibactam
7 | O=C1N2C[C@@H](CC[C@H]2c2nnc(CC3CNC3)o2)N1OS(=O)(=O)O [Compound 725, (2S,5R)-2-(5-(azetidin-3-ylmethyl)-1,3,4-oxadiazol-2-yl)-7-oxo-1,6-diazabicyclo[3.2.1]octan-6-yl hydrogen sulfate] | more active than Avibactam
8 | Nc1nnc([C@@H]2CC[C@@H]3CN2C(=O)N3OS(=O)(=O)O)o1 [Compound 707, (2S,5R)-2-(5-amino-1,3,4-oxadiazol-2-yl)-7-oxo-1,6-diazabicyclo[3.2.1]octan-6-yl hydrogen sulfate] | more active than Avibactam
9 | NC1CCN(c2nnc([C@@H]3CC[C@@H]4CN3C(=O)N4OS(=O)(=O)O)o2)CC1 [Compound 773, (2S,5R)-2-(5-(4-aminopiperidin-1-yl)-1,3,4-oxadiazol-2-yl)-7-oxo-1,6-diazabicyclo[3.2.1]octan-6-yl hydrogen sulfate] | more active than Avibactam
10 | N=C(N)NCCCc1nnc([C@@H]2CC[C@@H]3CN2C(=O)N3OS(=O)(=O)O)o1 [Compound 714, (2S,5R)-2-(5-(3-guanidinopropyl)-1,3,4-oxadiazol-2-yl)-7-oxo-1,6-diazabicyclo[3.2.1]octan-6-yl hydrogen sulfate] | more active than Avibactam
11 | O=C1N2C[C@@H](CC[C@H]2c2nnc(CNC3CCNCC3)o2)N1OS(=O)(=O)O [Compound 769, (2S,5R)-7-oxo-2-(5-((piperidin-4-ylamino)methyl)-1,3,4-oxadiazol-2-yl)-1,6-diazabicyclo[3.2.1]octan-6-yl hydrogen sulfate] | more active than Avibactam
12 | NCC(N)c1nnc([C@@H]2CC[C@@H]3CN2C(=O)N3OS(=O)(=O)O)o1 (stereo partly drawn) [Compound 717, (2S,5R)-2-(5-(1,2-diaminoethyl)-1,3,4-oxadiazol-2-yl)-7-oxo-1,6-diazabicyclo[3.2.1]octan-6-yl hydrogen sulfate] | more active than Avibactam
13 | N[C@H]1C[C@H](NCc2nnc([C@@H]3CC[C@@H]4CN3C(=O)N4OS(=O)(=O)O)o2)C1 [Compound 757, (2S,5R)-2-(5-((((1r,3S)-3-aminocyclobutyl)amino)methyl)-1,3,4-oxadiazol-2-yl)-7-oxo-1,6-diazabicyclo[3.2.1]octan-6-yl hydrogen sulfate] | more active than Avibactam
14 | N[C@H]1CC[C@H](c2nnc([C@@H]3CC[C@@H]4CN3C(=O)N4OS(=O)(=O)O)o2)CC1 [Compound 781, (2S,5R)-2-(5-((1r,4S)-4-aminocyclohexyl)-1,3,4-oxadiazol-2-yl)-7-oxo-1,6-diazabicyclo[3.2.1]octan-6-yl hydrogen sulfate] | more active than Avibactam
15 | O=C1N2C[C@@H](CC[C@H]2c2nnc(CCCN3CCNCC3)o2)N1OS(=O)(=O)O [Compound 792, (2S,5R)-7-oxo-2-(5-(3-(piperazin-1-yl)propyl)-1,3,4-oxadiazol-2-yl)-1,6-diazabicyclo[3.2.1]octan-6-yl hydrogen sulfate] | more active than Avibactam
16 | O=C1N2C[C@@H](CC[C@H]2c2nnc([C@@H]3CNCCN3)o2)N1OS(=O)(=O)O [Compound 778, (2S,5R)-7-oxo-2-(5-((S)-piperazin-2-yl)-1,3,4-oxadiazol-2-yl)-1,6-diazabicyclo[3.2.1]octan-6-yl hydrogen sulfate] | more active than Avibactam
17 | N[C@H]1CC[C@@H](c2nnc([C@@H]3CC[C@@H]4CN3C(=O)N4OS(=O)(=O)O)o2)CC1 [Compound 780, (2S,5R)-2-(5-((1s,4R)-4-aminocyclohexyl)-1,3,4-oxadiazol-2-yl)-7-oxo-1,6-diazabicyclo[3.2.1]octan-6-yl hydrogen sulfate] | more active than Avibactam
18 | NCC(O)c1nnc([C@@H]2CC[C@@H]3CN2C(=O)N3OS(=O)(=O)O)o1 (stereo partly drawn) [Compound 715, (2S,5R)-2-(5-(2-amino-1-hydroxyethyl)-1,3,4-oxadiazol-2-yl)-7-oxo-1,6-diazabicyclo[3.2.1]octan-6-yl hydrogen sulfate] | more active than Avibactam
19 | N=C(N)N[C@H]1C[C@H](c2nnc([C@@H]3CC[C@@H]4CN3C(=O)N4OS(=O)(=O)O)o2)C1 [Compound 748, (2S,5R)-2-(5-((1r,3S)-3-guanidinocyclobutyl)-1,3,4-oxadiazol-2-yl)-7-oxo-1,6-diazabicyclo[3.2.1]octan-6-yl hydrogen sulfate] | more active than Avibactam
20 | N=C(N)NCc1nnc([C@@H]2CC[C@@H]3CN2C(=O)N3OS(=O)(=O)O)o1 [Compound 704, (2S,5R)-2-(5-(guanidinomethyl)-1,3,4-oxadiazol-2-yl)-7-oxo-1,6-diazabicyclo[3.2.1]octan-6-yl hydrogen sulfate] | more active than Avibactam
